Consider six compounds from patent US4357344A, “Polybutylbenzylphenols and benzyl-3,4-methylenedioxybenzenes in insect population control” (The United States of America as represented by the …, priority 1979, dated 1982).

The structures appear in SMILES notation.

The subject of series [1] is screwworm flies. The experiment in a line: Anti-procreant tests on screw-worm fly. Format: in vivo. The settings on record: 0.10% in food. As for the experimental part:
These tests were conducted on mass-reared screwworm flies which had been obtained as pupae from the screwworm fly plant at Mission, Texas. The flies were held in cages with water and undiluted corn syrup in a colony room maintained at about 27° C. and 60% relative humidity (RH) with a 12-hour photoperiod beginning at 6 a.m. Adults that emerged were lightly anesthetized with CO2 for ease of manipulation the same day.
The mixtures obtained were fed to the flies in "Dixie" paper cups, 7 cm diameter, and rice hulls were placed on the surface of the food to prevent the flies from getting stuck in the viscous mixture.
Initially, varying concentrations of a chemosterilant were fed to the flies for the first 5 days of life. Thereafter, the chemosterilant was replaced with pure corn syrup. On the 7th day, 3 replicates of 10 flies were stimulated to oviposit and the flies which oviposited were checked for insemination by an examination of the spermathecae for live sperms. The total number of eggs per fly was estimated and the hatchability of these eggs (fertility) was determined 24 hours later (at 37° C.). Observations were made to determine percentage of egg hatch.

Series [2] is described as follows: Solubility in water. The format is physicochemical.
Series [3] relates to flies (family Muscidae). The series is described as follows: Oviposition inhibition tests (treated fly food; Examples 6-9). The format is in vivo. As for the experimental part:
The compound to be tested was administered in a standard fly food containing 6 parts of sugar, 6 parts of powdered non-fat dry milk, and 1 part of powdered egg yolk. Treated food was prepared by mixing an appropriate amount of a solution or suspension of CBCP in acetone with a batch of the food. The acetone was evaporated (4-6 hours) and the dry material was repulverized. Oviposition inhibition tests: Samples of treated food with a container of water were placed in cages containing 100 newly-emerged adult flies (family Muscidae). After the flies had been exposed to the treated diet for 6-7 days, 1/2 inch of moist standard fly larva-rearing medium (CSMA) in souffle cups was placed in the cages for oviposition. After 4-6 hours, the cup was removed and examined for eggs. […] The procedure outlined in Example 6 was followed using a Group II compound. The procedure outlined in Example 6 was followed using Group III compounds. The results are summarized below: The procedure outlined in Example 6 was followed substituting a Group IV compound for those of Group I. The table below provides a summary of results.

For series [4], the system named is Salmonella tester strains TA-100, TA-98, TA-1537. The series is described as follows: Ames' Salmonella/microsome mutagenicity procedure. To be noted: for mutagenic activity: TA-100, TA-98, TA-1537, without or with metabolic activation. As for the experimental part: The mutagenic activity of D, A, B, M, N, and CC were tested by the standard Ames' Salmonella/microsome procedure, which is reported to show better than 90% correlation with development of mammalian cancers (Ames et al., Mutation Research, Vol. 31, p. 347, 1975; McCann et al., Proc. Nat. Acad. Sci., Vol. 72, p. 5135, 1975). Tester strains TA-100, TA-98, TA-1537 and the plate test method were used, employing concentrations of 10, 100, 1000, and 10,000 […]. The metabolic activation mixture (S-9 mix) used the 9000 times g supernatant of Arochlor-1254-induced rat liver homogenate at a level of 100 μl per ml of S-9 mix.

Series [5] relates to flies (family Muscidae). The experiment in a line: Chemosterilancy tests (egg hatch and pupal development; Examples 6-9). The format is in vivo. As for the experimental part:
(§1) The compound to be tested was administered in a standard fly food containing 6 parts of sugar, 6 parts of powdered non-fat dry milk, and 1 part of powdered egg yolk. Treated food was prepared by mixing an appropriate amount of a solution or suspension of CBCP in acetone with a batch of the food. The acetone was evaporated (4-6 hours) and the dry material was repulverized.
Chemosterilancy tests: If eggs were laid in the above tests, the cups were filled with water and stirred to break up the egg masses. A random sample of 100 eggs from each cup was collected and placed on a small piece of black cloth which was then laid on top of moist larva-rearing medium in a rearing container. Observations were made to determine percentage of egg hatch and pupal development.
The procedure outlined in Example 6 was followed using a Group II compound.
The procedure outlined in Example 6 was followed using Group III compounds. The results are summarized below:
The procedure outlined in Example 6 was followed substituting a Group IV compound for those of Group I. The table below provides a summary of results.

Series [6] deals with early fourth-stage larvae of the common malaria mosquito (Anopheles quadrimaculatus). The experiment in a line: Growth-inhibition tests on mosquito larvae. The format is in vivo. To be noted: in water; corrected by Abbott's formula. As for the experimental part: The compound to be tested was added to one liter of water until the final concentration thereof was a growth-inhibiting amount. Fifty early fourth-stage larvae of the common malaria mosquito (Anopheles quadrimaculatus) were placed on this water. Larval food was administered daily. Dead larvae and pupae were removed, counted, and discarded daily. Live pupae were removed, rinsed, and transferred to a cup of distilled water. The cup was placed in an emergence cage, and the emerging adults, if any, were maintained on a sugar-water diet.
The effectiveness of the compound in inhibiting growth was determined by adding the number of dead larvae and pupae and the number of adults that were dead, unable to complete eclosion, and malformed. This sum was corrected by Abbott's formula (to adjust for the number of larvae or pupae which would die naturally) and designated as the GI (growth inhibition). The results are expressed as GI-90, i.e., the concentration of growth inhibitor in ppm that would prevent and/or retard growth in 90% of the treated larvae.

Series [7] in a line: Oral toxicity in mice. The settings on record: mouse, in vivo; oral, mice; read-out: Estimated LD50. As for the experimental part: (§2) Compounds D, A, and B were also assayed for oral toxicity in mice.
Series [8] has as its system mice. The experiment in a line: Oral toxicity in mice. To be noted: mouse, in vivo, po. As for the experimental part: as §2
Series [9] relates to male flies (family Muscidae). The experiment in a line: Sterilization of treated males crossed with virgin untreated females. Format: in vivo. As for the experimental part:
as §1
These flies were maintained on untreated fly food. After 5 days, cups containing the larval-rearing medium was provided as previously described and a 100-egg sample was collected and place on moist larve-rearing medium. About a week after oviposition, examination was made to determine the percentage of hatched eggs and of pupae developed.

`CCOc1cc2c(cc1Cc1ccc(OC)cc1)OCO2` [M, (4-Methoxybenzyl)-3,4-methylenedioxy-6-ethoxybenzene] had an Inhibition of embryogenesis in [1] of 99.8%. In addition, in [1], the Oviposition is 55.0%. Besides, the “Survival, Female” value in [1] came out at 88.7%. In series [1], the “Survival, Male” value is listed as 35.0%. Further, the solubility in water result in series [2] is “low solubility in water”. The “Mortality, parent generation” value in series [3] (0.01% in food), in series [3] (0.025% in food), in series [3] (0.05% in food) and in series [3] (0.1% in food) was 0% each time. Besides, the revertant frequencies entry in [4] (10-10,000 μg/plate in TA-100 and S-9) is “exceeded the mean control value plus two or three standard deviations”. For the same compound, in series [4] (TA-100 and S-9), the “mutagenic response relative to known mutagenic agents which revert this strain” value is “extremely weak”. For the same compound, the Egg hatch in [5] (0.01% in food) stood at 19%; in series [5] (0.025% in food) it was 0%; in series [5] (0.05% in food), 0%. The Pupal development in series [5] (0.01% in food) came to 19%; in series [5] (0.025% in food), 0%; in series [5] (0.05% in food), 0%.

With `C=CCc1cc2c(cc1Cc1ccc(OC)cc1)OCO2` [CC, (4-Methoxybenzyl)-3,4-methylenedioxy-6-(2-propenyl)benzene], the Inhibition of embryogenesis in series [1] was 100%. This compound also yielded an Oviposition in series [1] of 65.0%. Besides, in series [1], the “Survival, Female” value stood at 92.7%. For the same compound, in series [1], the “Survival, Male” value came out at 45.0%. The solubility in water result in series [2] was “low solubility in water”. For the same compound, the “Mortality, parent generation” value in series [3] (0.01% in food) turned out to be 0%; in series [3] (0.025% in food) it was 0%; in series [3] (0.05% in food) it was 0%; in series [3] (0.1% in food), 0%; in series [3] (0.25% in food), 50%. For the same compound, the mutagenic activity entry in series [4] was “non-mutagenic”. In addition, the “GI-90 (concentration of growth inhibitor that would prevent and/or retard growth in 90% of the treated larvae)” value in series [6] is listed as 0.2 ppm. Besides, the values for the Egg hatch in series [5] (0.01% in food) and in series [5] (0.025% in food) were 15% and 0%, respectively. Besides, the values for the Pupal development in series [5] (0.01% in food) and in [5] (0.025% in food) were 15% and 0%, respectively.

One may read the LD50 as the dose expected to kill half of the subjects tested. With `COc1ccc(C(C)c2cc(C(C)(C)C)cc(C(C)(C)C)c2O)cc1` (stereo not drawn) [B, 4,6-di-t-butyl-2-(α-methyl-4-methoxybenzyl)phenol], in series [7], the 50% lethal dose (LD50) is 3550 mg/kg. Besides, the “oral toxicity (in words)” value in [8] is “only slightly toxic”. Moreover, the “Mortality, parent generation” value in series [3] (0.25% in food), in [3] (0.5% in food) and in [3] (1.0% in food) was 0% throughout. Besides, the mutagenic activity result in [4] was “non-mutagenic”. Further, the Egg hatch is 18% in [5] (0.25% in food), 0% in series [5] (0.5% in food) and 0% in series [5] (1.0% in food). Further, the Pupal development is on record as 18% in series [5] (0.25% in food), 0% in series [5] (0.5% in food) and 0% in series [5] (1.0% in food).

On to `COc1ccc(Cc2cc(C(C)(C)C)cc(C(C)(C)C)c2O)cc1` [C, 4,6-Di-t-butyl-2-(4-methoxybenzyl)phenol], for which, in [1], the Inhibition of embryogenesis is listed as 100%. Besides, the Oviposition in [1] is given as 75.0%; in series [3] (0.25% in food) it was “Normal”; in series [3] (0.5% in food), “None”; in series [3] (1.0% in food), “None”. Also, in [1], the “Survival, Female” value is 66.0%. In series [1], the “Survival, Male” value stood at 63.0%. Besides, the solubility in water entry in series [2] is on record as “low solubility in water”. In addition, the “Mortality, parent generation” value in series [3] (0.01% in food), in series [3] (0.025% in food), in series [3] (0.05% in food), in series [3] (0.1% in food), in series [3] (0.25% in food) and in series [3] (0.5% in food) was 0% each time. In series [3] (1.0% in food), the “Mortality, parent generation” value was found to be 0%. In addition, the Egg hatch in [5] (0.01% in food) is recorded as 45%; in series [5] (0.025% in food), 0%; in series [5] (0.05% in food), 0%; in [5] (0.1% in food), 0%; in series [5] (0.25% in food), 0%. In addition, the Pupal development is recorded as 45% in series [5] (0.01% in food); 0% in series [5] (0.025% in food); 0% in [5] (0.05% in food); 0% in series [5] (0.1% in food); 0% in [5] (0.25% in food). Besides, in series [9] (0.25% in food), the sterilization of males was determined as 100%.

For `CCCOc1cc2c(cc1C(C)c1ccc(OC)cc1)OCO2` (stereo not drawn) [I, (α-Methyl-4-methoxybenzyl)-3,4-methylenedioxy-6-n-propoxybenzene], the “Mortality, parent generation” value in series [3] (0.01% in food), in [3] (0.025% in food) and in [3] (1.0% in food) was 0% throughout. Also, the “GI-90 (concentration of growth inhibitor that would prevent and/or retard growth in 90% of the treated larvae)” value in [6] is recorded as 0.042 ppm. Further, the Egg hatch in [5] (0.01% in food) was found to be 63%; in [5] (0.025% in food), 38%. In addition, the Pupal development in [5] (0.01% in food) is on record as 63%; in [5] (0.025% in food), 38%. Besides, the sterilization of males in series [9] (1.0% in food) came to 100%.

In the case of `CCCOc1cc2c(cc1Cc1ccc(OC)cc1)OCO2` [N, (4-Methoxybenzyl)-3,4-methylenedioxy-6n-propoxybenzene], the “Mortality, parent generation” value was 0% in series [3] (0.05% in food), 0% in series [3] (0.1% in food) and 75% in [3] (0.25% in food). Besides, in [4], the mutagenic activity result is listed as “non-mutagenic”. Further, the values for the Egg hatch in [5] (0.05% in food) and in series [5] (0.1% in food) were 33% and 0%, respectively. For the same compound, the Pupal development was found to be 33% in series [5] (0.05% in food) and 0% in series [5] (0.1% in food).
